Source: ChEMBL document CHEMBL5528062 (J Med Chem, 2024)
≈ marks a conversion by molar mass, not a printed value.

Legend:
[1] = test system: Mycobacterium tuberculosis; assay: Antimycobacterial activity against Mycobacterium tuberculosis H37Rv assessed as inhibition of bacterial growth incubated for 7 to 14 days by MABA assay; type: functional; conditions: time 7-14 day
[2] = Aqueous solubility of compound at pH 7.4; type: physicochemical; conditions: buffer
[3] = test system: Mycolicibacterium smegmatis; assay: Antimycobacterial activity against Mycobacterium smegmatis ATCC607 assessed as inhibition of bacterial growth measured after 48 hrs by broth microdilution method; type: functional
[4] = test system: Mycobacterium tuberculosis; assay: Antimycobacterial activity against Mycobacterium tuberculosis H37Rv mc2 6206 assessed as inhibition of bacterial growth measured after 7 days by visual analysis; type: functional; conditions: H37Rv mc2 6206, 168 h, time 7 day
[5] = Aqueous solubility of compound at pH 7.4 measured for 1 hr by UV-plate reader analysis; type: physicochemical; conditions: buffer
[6] = test system: Mycobacterium tuberculosis; assay: Antibacterial activity against Mycobacterium tuberculosis H37Rv assessed as bacterial growth inhibition; type: functional
[7] = test system: Mycobacterium tuberculosis; assay: Antibacterial activity against Mycobacterium tuberculosis H37Rv assessed as reduction in microbial growth; type: functional
[8] = test system: Mycobacterium tuberculosis; assay: Antimycobacterial activity against Mycobacterium tuberculosis H37Rv assessed as reduction in bacterial cell growth by resazurin reduction method; type: functional
[9] = Aqueous solubility of compound at pH 2.0 measured for 1 hr by UV-plate reader analysis; type: physicochemical; conditions: buffer
[10] = Aqueous solubility of compound in PBS at pH 6.5 incubated for 24 hrs by HPLC-MS/MS analysis; type: physicochemical
[11] = test system: Mycobacterium tuberculosis; assay: Antibacterial activity against Mycobacterium tuberculosis H37Rv assessed as inhibition of bacterial growth incubated for 6 days by microplate alamar blue assay; type: functional; conditions: 144 h, time 6 day
[12] = test system: Mycobacterium tuberculosis; assay: Antimycobacterial activity against Mycobacterium tuberculosis K204 assessed as inhibition of bacterial growth measured after 6 days by alamar blue dye based assay; type: functional; conditions: K204, 144 h, time 6 day
[13] = Aqueous solubility of compound at pH 7.4 by HPLC-MS/MS analysis; type: physicochemical; conditions: buffer
Mycobacterium avium = assay: Antibacterial activity against Mycobacterium avium ATCC 25291 assessed as inhibition of bacterial growth incubated for 2 to 3 weeks by resazurin dye based assay; type: functional; conditions: time 2-3 weeks
[14] = test system: Mycolicibacterium smegmatis; assay: Antimycobacterial activity against Mycobacterium smegmatis 700084 assessed as inhibition of microbial growth incubated for 48 hrs by resazurin dye based broth microdilution method; type: functional
Acinetobacter baumannii = assay: Antibacterial activity against Acinetobacter baumannii harboring RpoB H535Q mutant assessed as fold change in MIC incubated for 20 hrs by CLSI based microbroth dilution method; type: functional

Work on O=[N+]([O-])c1cn2c(n1)OC[C@@H](OCc1ccc(-c3ccc(OC(F)(F)F)c(F)c3)nc1)C2 yielded an MIC [1] of 0.025 µM (≈ 0.0114 µg/mL) and a solubility [2] of 3 µg/mL (≈ 6.6 µM).
Compound C[C@]1(COc2ccc(N3CCC(Oc4ccc(OC(F)(F)F)cc4)CC3)cc2)Cn2cc([N+](=O)[O-])nc2O1 has an MIC [3] of 0.03 µg/mL (≈ 0.0561 µM) and an MIC [4] of 0.007 µg/mL (≈ 0.0131 µM).
In the case of C[C@]1(COc2ccc(S(=O)(=O)N3CCOCC3)cc2)Cn2cc([N+](=O)[O-])nc2O1, the solubility at 1 h [5] is reported as 20 µg/mL (≈ 47.1 µM) and the MIC [6] is reported as 0.37 µg/mL (≈ 0.872 µM).
With C[C@]1(COc2ccc(-n3cc(COc4ccc(OC(F)(F)F)cc4)nn3)cc2)Cn2cc([N+](=O)[O-])nc2O1 the solubility at 1 h [5] was < 1 µg/mL and the MIC [7] was 0.12 µg/mL.
For C[C@]1(CN2CCc3nc(-c4ccccc4)ccc3C2)Cn2cc([N+](=O)[O-])nc2O1, the MIC [8] was < 0.031 µg/mL, the solubility at 1 h [9] was 143 µM (≈ 56.2 µg/mL) and the solubility at 24 h [10] was 9.41 µM (≈ 3.68 µg/mL).
Compound C[C@]1(CN2CCc3nc(-c4ccc(F)cc4)ccc3C2)Cn2cc([N+](=O)[O-])nc2O1 has an MIC [8] of 0.25 µg/mL (≈ 0.611 µM), a solubility at 1 h [9] of 130 µM (≈ 53 µg/mL) and a solubility at 24 h [10] of 3.35 µM (≈ 1.37 µg/mL).
With C[C@]1(CN2CCc3nc(-c4cc(F)c(F)c(F)c4)ccc3C2)Cn2cc([N+](=O)[O-])nc2O1 the MIC [8] was 0.08 µg/mL (≈ 0.18 µM), the solubility at 1 h [9] was > 200 µM and the solubility at 24 h [10] was < 1 µM.
For COc1nc2ccc(C#N)cc2cc1[C@H](c1ccccc1)[C@](O)(CCN(C)C)c1ccccc1, the MIC [11] was 0.09 µg/mL (≈ 0.199 µM).
In the case of O=[N+]([O-])c1cn2c(n1)OC[C@@H](OCc1nnn(-c3ccc(OC(F)(F)F)cc3)n1)C2, the MIC [12] is reported as 0.035 µM (≈ 0.015 µg/mL).
With O=[N+]([O-])c1cn2c(n1)OC[C@@H](OCc1ccn(-c3ccc(OC(F)(F)F)cc3)n1)C2 the MIC [12] was 0.05 µM (≈ 0.0213 µg/mL).
For Cn1nc(-c2ccc(OC(F)(F)F)cc2)cc1CO[C@@H]1COc2nc([N+](=O)[O-])cn2C1, the MIC [12] was 0.06 µM (≈ 0.0264 µg/mL) and the solubility [13] was 23 µg/mL (≈ 52.4 µM).
In the case of O=[N+]([O-])c1cn2c(n1)OC[C@@H](OCc1ccc(-c3ccc(OC(F)(F)F)cc3)cc1)C2, the MIC (Mycobacterium avium) is reported as 0.035 µM (≈ 0.0152 µg/mL).
O=[N+]([O-])c1cn2c(n1)OC[C@@H](OCc1ccc(-c3ccc(OC(F)(F)F)c(Cl)c3)cc1)C2 showed an MIC (Mycobacterium avium) of 0.03 µM (≈ 0.0141 µg/mL).
For O=[N+]([O-])c1cn2c(n1)OC[C@@H](OCc1ccc(-c3ccc(OC(F)(F)F)c(F)c3)cc1)C2, the MIC (Mycobacterium avium) was 0.03 µM (≈ 0.0136 µg/mL).
COc1nc2ccc(Br)cc2cc1[C@@H](c1ccccc1)[C@@](O)(CCN(C)C)c1cccc2ccccc12 [BEDAQUILINE] showed an MIC [3] of 0.015 µg/mL (≈ 0.027 µM).
With O=[N+]([O-])c1cn2c(n1)OC[C@@H](OCc1ccc(OC(F)(F)F)cc1)C2 [PRETOMANID] the MIC [3] was 0.03 µg/mL (≈ 0.0835 µM), the MIC [14] was 0.03 µg/mL and the “fold change (FC)” value (Acinetobacter baumannii) was >13.
O=[N+]([O-])c1cn2c(n1)OC[C@@H](OCc1ccc(-c3ccc(OC(F)(F)F)cc3)nc1)C2 [TBA-354] showed an MIC [1] of 0.005 µM (≈ 0.00218 µg/mL) and a solubility [2] of 2.3 µg/mL (≈ 5.27 µM).
